Where two headings read alike, the source gives them in different places.
Test system: participants with idiopathic pulmonary fibrosis (IPF)
[1] = 320 mg (n = 22), treatment up to 40 weeks
[2] = All 40-160 mg (n = 67), 12 weeks
[3] = All 40-320 mg (n = 88), 12 weeks
[4] = pooled 40-160 mg, With Background SoC (n = 55), 12 weeks
[5] = pooled 40-160 mg, With Background SoC nintedanib or pirfenidone (n = 55), 12 weeks
[6] = pooled 40-160 mg, Without Background SoC (n = 12), 12 weeks
[7] = single participant, 320 mg, after week 12, not drug related, resolved
[8] = single participant, 320 mg, after week 12, not drug related, resolved with sequalae

Text: The groups were stratified for the use of nintedanib or pirfenidone. The groups were screened 28 days before the Day 1 of the study. At Day 1, baseline values were collected. During week 12, the subjects received the last dose, and the study was ended at week 14. Primary and secondary endpoints of the study included safety, tolerability, and PK. Exploratory endpoints included change in FVC over 12 weeks; High Resolution CT-based Quantitative Lung Fibrosis (QLF) imaging; patient-reported outcome (PRO): VAS-cough severity; and effect on selected biomarkers.
The groups were stratified for the use of nintedanib or pirfenidone. The screening was done 28 days before Day 1 and the baseline was measured on Day 1. The last dose was on Week 12, and the end of study was on Week 14. The primary and secondary endpoints include safety, tolerability, and PK. Exploratory Endpoints include change in Forced Vital Capacity (FVC) over 12 weeks, High Resolution CT-based Quantitative Lung Fibrosis (QLF) imaging, and effect on selected biomarkers.
The groups were stratified for the use of nintedanib or pirfenidone. The groups were screened 28 days before the Day 1 of the study. At Day 1, baseline values were collected. The study was continued up to Week 48. The treatment duration per protocol is at least 24 weeks and at most 48 weeks. For the study, the primary and secondary endpoints evaluated in the trial were safety, tolerability, and pharmacokinetics. The exploratory endpoints evaluated included the change in FVC over 12 and 24 weeks; high Resolution CT-based Quantitative Lung Fibrosis (QLF) imaging; patient-reported cough severity; and effect on selected biomarkers.

For `COCCN(CCCCc1ccc2c(n1)NCCC2)CC[C@H](Nc1ncnc2ccccc12)C(=O)O` [Compound 5, (S)-4-((2-methoxyethyl) (4-(5,6,7,8-tetrahydro-1,8-naphthyridin-2-yl)butyl)amino)-2-(quinazolin-4-ylamino) butanoic acid], the “TEAE Dyspnoea, participants reporting” value [1] was 5 n, the “TEAE Idiopathic Pulmonary Fibrosis related to study drug” value [1] was 0 n and the “TEAE Idiopathic Pulmonary Fibrosis, % of participants” value [1] was “(18.2) %”. For the same compound, the “TEAE Idiopathic Pulmonary Fibrosis, participants reporting” value [1] was 4 n, the “TEAE Leading to Death” value [1] was 1 n and the “TEAE Leading to Death, % of participants” value [1] was “(4.5) ^3%”. For the same compound, the “TEAE Leading to Early Termination from Study” value [1] was 3 n, the “TEAE Leading to Early Termination from Study, % of participants” value [1] was “(13.6) ^2,3,4%” and the “TEAE Leading to Interruption of Study Drug” value [1] was 4 n. The “TEAE Leading to Interruption of Study Drug, % of participants” value [1] was “(18.2) ^2%”, the “TEAE Leading to Withdrawal of Study Drug” value [1] was 3 n and the “TEAE Leading to Withdrawal of Study Drug, % of participants” value [1] was “(13.6) ^2,3,4%”. The “TEAE Upper respiratory tract infection related to study drug” value [1] was 0 n, the “TEAE Upper respiratory tract infection, % of participants” value [1] was “(9.1) %” and the “TEAE Upper respiratory tract infection, participants reporting” value [1] was 2 n. For the same compound, the “TEAE of CTCAE Grade 3 or Higher” value [1] was 5 n, the “TEAE of CTCAE Grade 3 or Higher related to study drug, % of participants” value [1] was “(4.5) ^1%” and the “TEAE of CTCAE Grade 3 or Higher, % of participants” value [1] was “(22.7) %”. For the same compound, the “TEAE related to study drug” value [1] was 5 n, the “TEAE related to study drug, % of participants” value (“TEAE related to study drug, %” for short) [1] was “(22.7) %” and the “TEAE, % of participants” value [1] was “(90.9) %”. The “TEAE, participants reporting” value [1] was 20 n, the “TEAE of CTCAE Grade 3 or Higher related to study drug” value (320 mg (n = 22), treatment up to 40 weeks, blood pressure increased) was 1 n and the “Safety and tolerability” value (320 mg, long-term treatment up to 40 weeks) was “well tolerated”. The “Any AEs, % of participants” value [2] was “(68.7) %”, the “Any AEs, participants reporting” value [2] was 46 n and the “Serious TEAE” value [2] was 3 n. The “Serious TEAE related to study drug” value [2] was 0 n, the “Serious TEAE, % of participants” value [2] was “(4.5) %” and the “TEAE Diarrhea (any causality), % of participants” value [2] was “(17.9) %”. The “TEAE Diarrhea (any causality), participants reporting” value [2] was 12 n, the “TEAE Diarrhea related to study drug, % of participants” value [2] was “(11.9) %” and the “TEAE Diarrhea related to study drug, participants reporting” value [2] was 8 n. For the same compound, the “TEAE Leading to Death” value [2] was 0 n, the “TEAE Leading to Early Termination from Study” value [2] was 0 n and the “TEAE Leading to Interruption of Study Drug” value [2] was 1 n. The “TEAE Leading to Interruption of Study Drug, % of participants” value [2] was “(1.5) %”, the “TEAE Leading to Withdrawal of Study Drug” value [2] was 0 n and the “TEAE of CTCAE Grade 3 or Higher” value [2] was 4 n. The “TEAE of CTCAE Grade 3 or Higher related to study drug” value [2] was 1 n, the “TEAE of CTCAE Grade 3 or Higher related to study drug, % of participants” value [2] was “(1.5) %” and the “TEAE of CTCAE Grade 3 or Higher, % of participants” value [2] was “(6.0) %”. The “TEAE related to study drug” value [2] was 15 n, the “TEAE related to study drug, %” value [2] was “(22.4) %” and the “TEAE, % of participants” value [2] was “(67.2) %”. For the same compound, the “TEAE, participants reporting” value [2] was 45 n, the “Any AEs, % of participants” value [3] was 72.7% and the “Any AEs, participants reporting” value [3] was 64 n. For the same compound, the “Serious TEAE” value [3] was 4 n, the “Serious TEAE related to study drug” value [3] was 0 n and the “Serious TEAE, % of participants” value [3] was 4.5%. The “TEAE Diarrhea (any causality), % of participants” value [3] was 17.0%, the “TEAE Diarrhea (any causality), participants reporting” value [3] was 15 n and the “TEAE Diarrhea related to study drug, % of participants” value [3] was 11.4%. For the same compound, the “TEAE Diarrhea related to study drug, participants reporting” value [3] was 10 n, the “TEAE Leading to Death” value [3] was 1 n and the “TEAE Leading to Death, % of participants” value [3] was 1.1%. The “TEAE Leading to Early Termination from Study” value [3] was 3 n, the “TEAE Leading to Early Termination from Study, % of participants” value [3] was 3.4% and the “TEAE Leading to Interruption of Study Drug” value [3] was 2 n. The “TEAE Leading to Interruption of Study Drug, % of participants” value [3] was 2.3%, the “TEAE Leading to Withdrawal of Study Drug” value [3] was 3 n and the “TEAE Leading to Withdrawal of Study Drug, % of participants” value [3] was 3.4%. For the same compound, the “TEAE of CTCAE Grade 3 or Higher” value [3] was 6 n, the “TEAE of CTCAE Grade 3 or Higher related to study drug” value [3] was 1 n and the “TEAE of CTCAE Grade 3 or Higher related to study drug, % of participants” value [3] was 1.1%. The “TEAE of CTCAE Grade 3 or Higher, % of participants” value [3] was 6.8%, the “TEAE related to study drug” value [3] was 19 n and the “TEAE related to study drug, %” value [3] was 21.6%. The “TEAE, % of participants” value [3] was 70.5%, the “TEAE, participants reporting” value [3] was 62 n and the “SAE Acute respiratory failure: Standard Toxicity Grade” value (one participant, 40 mg, not treatment related, dose not changed, recovered/resolved) was “Grade 3”. The “SAE Idiopathic pulmonary fibrosis (acute exacerbation): Standard Toxicity Grade” value (one participant, 160 mg, not treatment related, about 2 weeks after 12-week treatment, not recovered/not resolved) was “Grade 3”, the “SAE Atrial flutter: Standard Toxicity Grade” value (one participant, 160 mg, not treatment related, underlying disease, recovered/resolved) was “Grade 3” and the “SAE Acute respiratory failure: Standard Toxicity Grade” value (one participant, 320 mg, GAP Stage III, after elective atrioventricular node ablation, not treatment related, drug withdrawn, fatal) was “Grade 5”. The “AE leading to withdrawal, Diarrhea: Standard Toxicity Grade” value (one participant, 320 mg, receiving nintedanib, recovered/resolved) was “Grade 1”, the “Any AEs, % of participants” value [4] was “(69.1) %” and the “Serious TEAE, % of participants” value [4] was “(5.5) %”. For the same compound, the “TEAE of CTCAE Grade 3 or Higher related to study drug, % of participants” value [4] was “(1.8) %”, the “TEAE of CTCAE Grade 3 or Higher, % of participants” value [4] was “(7.3) %” and the “TEAE related to study drug, %” value [4] was “(23.6) %”. For the same compound, the “TEAE, % of participants” value [4] was “(67.3) %”, the “Any AEs, participants reporting” value [5] was 38 n and the “Serious TEAE” value [5] was 3 n. For the same compound, the “Serious TEAE related to study drug” value [5] was 0 n, the “TEAE Leading to Death” value [5] was 0 n and the “TEAE Leading to Early Termination from Study” value [5] was 0 n. For the same compound, the “TEAE Leading to Interruption of Study Drug” value [5] was 0 n, the “TEAE Leading to Withdrawal of Study Drug” value [5] was 0 n and the “TEAE of CTCAE Grade 3 or Higher” value [5] was 4 n. For the same compound, the “TEAE of CTCAE Grade 3 or Higher related to study drug” value [5] was 1 n, the “TEAE related to study drug” value [5] was 13 n and the “TEAE, participants reporting” value [5] was 37 n. For the same compound, the “Any AEs, % of participants” value [6] was “(66.7) %”, the “Any AEs, participants reporting” value [6] was 8 n and the “Serious TEAE” value [6] was 0 n. The “Serious TEAE related to study drug” value [6] was 0 n, the “TEAE Leading to Death” value [6] was 0 n and the “TEAE Leading to Early Termination from Study” value [6] was 0 n. For the same compound, the “TEAE Leading to Interruption of Study Drug” value [6] was 1 n, the “TEAE Leading to Interruption of Study Drug, % of participants” value [6] was “(8.3) %” and the “TEAE Leading to Withdrawal of Study Drug” value [6] was 0 n. The “TEAE of CTCAE Grade 3 or Higher” value [6] was 0 n, the “TEAE of CTCAE Grade 3 or Higher related to study drug” value [6] was 0 n and the “TEAE related to study drug” value [6] was 2 n. For the same compound, the “TEAE related to study drug, %” value [6] was “(16.7) %”, the “TEAE, % of participants” value [6] was “(66.7) %” and the “TEAE, participants reporting” value [6] was 8 n. The “SAE Pneumonia: Standard Toxicity Grade” value (same participant, 40 mg, not treatment related, removed carpet from home without a mask, recovered/resolved) was “Grade 2”, the “SAE Iron Deficiency anemia: Standard Toxicity Grade” value (single participant, 320 mg, Week 29, not drug related, resolved with sequalae) was “Grade 3” and the “SAE Ileus: Standard Toxicity Grade” value (single participant, 320 mg, after week 12 (Week 21 hospitalization), not drug related, resolved) was “Grade 3”. For the same compound, the “SAE Acute Kidney Injury: Standard Toxicity Grade” value [7] was “Grade 2”, the “SAE Gastritis: Standard Toxicity Grade” value [7] was “Grade 2” and the “SAE Hyperlactatemia: Standard Toxicity Grade” value [7] was “Grade 2”. The “SAE Acute Left Heart Failure: Standard Toxicity Grade” value [8] was “Grade 3”, the “SAE Gastric Ulcer: Standard Toxicity Grade” value [8] was “Grade 3” and the “SAE Haemorrhagic arteriovenous malformation: Standard Toxicity Grade” value [8] was “Grade 3”.

Reference: patent US20240122930A1, “INTEGRIN INHIBITORS AND USES THEREOF IN COMBINATION WITH OTHER AGENTS” (Pliant Therapeutics, Inc., priority 2022, published 2024)
